According to US20030032065A1, “Ensemble-based strategy for the design of protein pharmaceuticals” (priority 2001, published 2003):
Ends that are not written are not given here.

Key:
streptavidin [1] = target: T1, streptavidin (Streptomyces avidinii, UniProt P22629); conditions: peptide-streptavidin complex, experimentally observed binding constant; cited from earlier work
streptavidin [2] = target: T1, streptavidin; format: binding; conditions: peptide-streptavidin complex, association constant

T1 sequence (P22629 25-183): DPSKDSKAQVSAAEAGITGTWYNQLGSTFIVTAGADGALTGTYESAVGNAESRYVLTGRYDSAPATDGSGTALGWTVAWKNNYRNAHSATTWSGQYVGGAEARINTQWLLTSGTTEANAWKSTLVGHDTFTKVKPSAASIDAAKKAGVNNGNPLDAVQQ

Row | Substance | Kd (streptavidin [1]) | Observed KA (streptavidin [2])
1 | cyclo-(AHPQFGAE)K (AHPQFGAEK; also: cyclic, ring closure not given here) | 19 µM | 0.05 µM⁻¹
2 | AECHPQFCIEGRK | 0.47 µM | 2.13 µM⁻¹
3 | RCCHPQFEPCMGC | 0.33 µM | 3.0 µM⁻¹
4 | FSHPQNT |  | 0.008 µM⁻¹
5 | RCCHPQCGMVEEC | 1.3 µM | 3.3 µM⁻¹
6 | RCCHPQCGMAEEC | 2.3 µM | 0.45 µM⁻¹
7 | cyclo-(AQYGHFAE)K (AQYGHFAEK; also: cyclic, ring closure not given here) | > 5000 µM | 0.0002 µM⁻¹
8 | AHPQFGAEK | 204 µM | 0.005 µM⁻¹
9 | cyclo-CHPQGPPC (also: cyclic, closure type not given here) | 0.67 µM | 1.49 µM⁻¹
10 | HDHPQNL | 282 µM | 0.004 µM⁻¹
11 | cyclo-(AHPQFPAE)K (AHPQFPAEK; also: cyclic, ring closure not given here) | 0.13 µM | 7.69 µM⁻¹
12 | AECHPQGPPCIEGRK | 0.23 µM | 4.35 µM⁻¹
13 | AECHPQFNCIEGRK | 7 µM | 0.14 µM⁻¹
14 | AECHPQFPCIEGRK | 0.93 µM | 1.08 µM⁻¹
15 | cyclo-CHPQFC | 0.27 µM | 3.70 µM⁻¹
16 | AHPQFPAEK | 136 µM | 0.007 µM⁻¹
